According to US20030044861A1, “Method for diagnosing neoplasia” (priority 1998, published 2003):
“Also recorded” adds a separate entry of the source. Where two headings read alike, the source gives them in different places.

How the values were obtained:
neoplastic cells = experiment: Apoptosis induction and growth inhibition in neoplastic cells (words only); assay type: cell-based
[1] = molecular target: T1, PDE peak A (PDE5) from SW-480 cells (Homo sapiens, UniProt O76074); experiment: cGMP hydrolysis by PDE peak A; assay type: biochemical
T1 construct: SW-480 cells are collected and homogenized; The homogenate is centrifuged, and the supernatant is loaded onto a DEAE-Trisacryl M column; endogenous in cells; host or cells: SW-480 human colon carcinoma cells, DEAE-Trisacryl M fraction peak A

HT-29 cells = experiment: Apoptosis and necrosis by morphology (acridine orange/ethidium bromide); assay type: cell-based; settings: for % Apoptosis / % Necrosis: HT-29 cells treated for 6 days
Method: In one type of apoptosis assay, suspected neoplastic cells are removed from a patient. The cells are then grown in culture in the presence or absence of a cGMP-specific PDE inhibitor. Apoptotic cells are measured by combining both the attached and “floating” compartments of the cultures. The protocol for treating tumor cell cultures with PDE inhibitors and related compounds to obtain a significant amount of apoptosis has been described in the literature. (See, Piazza, G. A., et al., Cancer Research, 55:3110-16, 1995, which is incorporated herein by reference). The novel features of this assay include collecting both floating and attached cells, identification of the optimal treatment times and dose range for observing apoptosis, and identification of optimal cell culture conditions.
Following treatment of neoplastic and normal cells with a test compound, cultures can be assayed for apoptosis and necrosis by fluorescent microscopy following labeling with acridine orange and ethidium bromide. The method for measuring apoptotic cell number has previously been described by Duke & Cohen, “Morphological And Biochemical Assays Of Apoptosis,” Current Protocols In Immunology, Coligan et al., eds. 3.17.1-3.17.16 (1992, which is incorporated herein by reference).
For example, floating and attached cells are collected, and aliquots of cells are centrifuged. The cell pellet is then resuspended in media and a dye mixture containing acridine orange and ethidium bromide. The mixture is then examined microscopically for morphological features of apoptosis.
Apoptotic and necrotic cell death was determined as previously described (Duke and Cohen, In: Current Protocols in Immunology, 3.17.1-3.17.16, New York, John Wiley and Sons, 1992). […] All data were collected from the same experiment.
The diagnostic method of this invention is used to determine whether a particular neoplasia is sensitive to treatment with a cGMP-specific PDE inhibitor. The apoptosis inducing activity for a series of phosphodiesterase inhibitors, specific for different PDEs, was determined. HT-29 cells were treated for 6 days with various inhibitors of phosphodiesterase. Apoptosis and necrosis were determined morphologically after acridine orange and ethidium bromide labeling in accordance with the assay described, supra.

[2] = system: PDE peak B (novel cGMP-specific PDE) from SW-480 cells; experiment: cGMP hydrolysis by PDE peak B; assay type: biochemical, human; settings: for IC50: cGMP hydrolysis, 0.25 μM 3H-cGMP substrate; for Km: peak B
[3] = system: colonic polyps of familial polyposis patients; experiment: Apoptosis clinical study, apoptotic labeling index (ALI) in biopsies; assay type: in vivo, human
Method: Increases in apoptosis are indicative that the neoplasia in question is sensitive to treatment with a cGMP-specific PDE inhibitor, such as sulindac sulfone (aposulind). A human in vivo aposulind-induced selective induction of apoptosis in colonic polyps is described below. Six familial polyposis patients per group were administered one of three doses of aposulind (200 mg, 400 mg which was later lowered to 200 mg for most patients in the group, or 300 mg) twice daily (BID).
Biopsies are taken from patients and used to investigate possible cellular mechanisms of apoptosis. Biopsy samples are placed in transfer media (500 ml RPMI1640 containing 50 ml fetal calf serum, 5×10^8 units penicillin G, and 5×10^6 μg streptomycin) and kept on ice for less than 1 hour until transfer to the pathology department. Upon receipt in the pathology department, samples are removed from the transfer media and oriented mucosa up, serosa down on filter paper, placed between biopsy sponges in a tissue cassette, and fixed in 10% neutral buffered formalin for 24 hours. Samples are then transferred to 70% ethanol and embedded in paraffin. Samples are oriented perpendicularly to the tissue cassette during final orientation in paraffin for longitudinal crypt exposure and easy visualization of mucosa and the relation to the basement membrane.
Four micron sections of tissue were cut, mounted, deparaffinized, rehydrated in graded alcohol, and treated with pepsin (5 mg/ml) to digest protein in the tissue. Sections were washed and treated with 2% hydrogen peroxide (H2O2) in PBS to quench endogenous peroxidase and washed again. Tissue samples were then circled with a PAP pen (Research Products Int., 800-323-9814) to produce a hydrophobic barrier to concentrate reagents on the sample. If a DNase positive control is desired, the sample is treated with DNase for 10 minutes, equilibrated in transferase buffer, and treated using 100 enzyme units/ml terminal transferase enzyme (TdT) at 37° C. for 60 minutes. Samples are washed and anti-digoxigenin-peroxidase is applied. Each sample is then covered with a coverslip and left in a humid box at room temperature for 30 minutes. After washing three times peroxidase is developed using DAB for nine minutes. After sufficient color development, the slides are washed and counterstained with hemotoxylin and eosin.
Apoptotic and nonapoptotic cells are counted on the basis of staining and morphology. An apoptotic labeling index (ALI) is calculated by dividing the total number of apoptotic cells counted by the total number of epithelial cells counted and expressing the quotient as a percentage.

[4] = molecular target: T2, GST-PDE5 binding domain fusion protein (Homo sapiens, UniProt O76074); experiment: Cyclic GMP binding assay, 3H-cGMP saturation binding; settings: read-out: Km for cGMP; 3H-cGMP saturation binding curve at 25° C.
T2 construct: made in house; host or cells: E. coli BL21
Method: The assay was performed in a total volume of 100 μL containing 5 mM sodium phosphate buffer (pH 6.8), 1 mM EDTA and 0.25 mg/ml BSA and H^3-cGMP (5.8 Ci/mmol, NEN). The purified soluble GST-PDE5 binding domain fusion protein (5 to 50 μg/assay) was incubated at […] for one hour and then transferred to a Brandel MB-24 Cell Harvester with GF/B as the filter membrane. Next the fusion protein was washed twice with 10 mL of cold 5 mM potassium buffer, pH 6.8. The membranes were cut out and transferred to scintillation vials, then 1 ml of H2O and 6 ml of Ready Safe liquid scintillation cocktail as added and the samples were counted on a Beckman LS 6500 scintillation counter. A ^3H-cGMP saturation binding curve at 25° C. was generated.

PDE5 cGMP-binding sites = PDE5 cGMP-binding sites (Bos taurus, UniProt Q28156); settings: bovine PDE5; read-out: Kd of high affinity binding site; cited from earlier work

## CCCOc1ccccc1-c1nc2nn[nH]c2c(=O)[nH]1 [Zaprinast]
Neoplastic cells
  Apoptosis induction in neoplastic cells (in words): do not have significant apoptosis-inducing or growth-inhibiting properties
  Growth inhibition of neoplastic cells (in words): do not have significant apoptosis-inducing or growth-inhibiting properties
Neoplastic cells; listed as zaprinast
  Apoptosis induction in neoplastic cells (in words): none of the three
  Growth inhibition of neoplastic cells (in words): none of the three
[1]
  Mode of inhibition of cGMP hydrolysis, peak A: competitive inhibition

## Clc1cccc(Nc2nnc(-c3ccccc3)c3ccccc23)c1 [MY5445]
HT-29 cells
  % Apoptosis: 80%
  % Necrosis: 5%

## CCOC(=O)C1=C[C@]2(CC)CCCN3CCc4c(n1c1ccccc41)[C@@H]32 [Vinpocetine]
[2]
  Sensitivity of the new cGMP-PDE to inhibition (in words): relatively insensitive
  IC50: > 100 µM

## CC1=C(CC(=O)O)c2cc(F)ccc2/C1=C\c1ccc(S(C)(=O)=O)cc1 [Exisulind, (Z)-5-fluoro-2-methyl-1-[[4-(methylsulfonyl)phenyl]methylene]indene-3-yl acetic acid]
HT-29 cells; HT-29 cells treated for six days
  Apoptotic and necrotic cell death (FIG. 1, in words): capable of causing apoptotic cell death without inducing neoplastic cell necrosis
[3]; 200 mg BID group
  Change in ALI after treatment: did not demonstrate any elevation
[3]; 200 mg BID, Month 1
  Mean Polyp ALI: 4.05%
[3]; 200 mg BID, Month 4
  Mean Polyp ALI: 4.52%
[3]; 200 mg BID, Month 6
  Mean Polyp ALI: 5.90%
[3]; 300 mg BID, Month 1
  Mean Polyp ALI: 4.90%
[3]; 300 mg BID, Month 6
  Mean Polyp ALI: 15.63%
[3]; 300 mg BID, six months
  Change in ALI of polyps after treatment: two fold increase
[3]; 400/200 mg BID group while uniformly dosed at 400 mg BID
  Change in ALI of dysplastic tissue after treatment: two-fold elevation
[3]; 400/200 mg BID, Month 1
  Mean Polyp ALI: 10.98%
[3]; 400/200 mg BID, Month 4
  Mean Polyp ALI: 5.51%
[3]; 400/200 mg BID, Month 6
  Mean Polyp ALI: 5.10%
[3]; familial polyposis patients
  Polyp size and number: diminution of polyp size and decrease in polyp number
[3]; normal mucosa, any treatment group, over time
  Change in normal mucosa ALI versus baseline ALI: no significant change
[3]; over six months of treatment
  Apoptosis levels in regressing polyps: doubled

## COc1ccc(C2CNC(=O)C2)cc1OC1CCCC1 (stereo not drawn) [Rolipram]
[2]
  Sensitivity of the new cGMP-PDE to inhibition (in words): relatively insensitive
  IC50: > 100 µM

## CCCCOc1cc(CC2CNC(=O)N2)ccc1OC (stereo not drawn) [RO-20-1724]
HT-29 cells
  % Apoptosis: 11%
  % Necrosis: 2%

## O=C([O-])C1CCN(c2nc(NCc3ccc4c(c3)OCO4)c3cc(Cl)ccc3n2)CC1.[Na+] [Compound E4021]
Neoplastic cells
  Apoptosis induction in neoplastic cells (in words): none of the three; also recorded: do not have significant apoptosis-inducing or growth-inhibiting properties
  Growth inhibition of neoplastic cells (in words): none of the three; also recorded: do not have significant apoptosis-inducing or growth-inhibiting properties
[2]
  Sensitivity of the new cGMP-PDE to inhibition (in words): relatively insensitive

## COc1nc2c([nH]1)c(=O)n(C)c(=O)n2CC(C)C [8-methoxy-IBMX]
HT-29 cells
  % Apoptosis: 2%
  % Necrosis: 1%

## COc1cc(/C=C2/C(C)=C(CC(=O)NCc3ccccc3)c3cc(F)ccc32)cc(OC)c1OC [Compound E, [(Z)-5-fluoro-2-methyl-1-(3,4,5-trimethoxybenzylidene)-3-indenylacetamide, N-benzyl]]
Neoplastic cells
  Apoptosis induction in neoplastic cells (in words): induce apoptosis in neoplastic cells
  Growth inhibition of neoplastic cells (in words): precisely the opposite
[1]
  Mode of inhibition of cGMP hydrolysis, peak A: competitively inhibit
[1]; cGMP hydrolysis
  Ratio (IC50 PeakA/Peak B): 1.0
[2]
  Mode of inhibition of cGMP hydrolysis, peak B: competitively inhibit
  IC50: 0.37 µM

## CC(C)Cn1c(=O)n(C)c(=O)c2[nH]cnc21 [IBMX]
HT-29 cells
  % Apoptosis: 4%
  % Necrosis: 13%

## Nc1nc2c(ncn2[C@@H]2O[C@@H]3COP(=O)(O)O[C@H]3[C@H]2O)c(=O)[nH]1 [cGMP]
[1]; read-out: Km of the enzyme for cGMP, peak A
  Km: 1.07 µM
[4]
  Km: 0.41 ± 0.08 µM
[2]; decreasing slope of Eadie-Hofstee plot, absence of cAMP, read-out: apparent Km
  Km: 8.4 µM
[2]; increasing slope of Eadie-Hofstee plot, called submicromolar affinity, read-out: Km
  Km: < 1 µM
PDE5 cGMP-binding sites
  Kd: 0.5 µM

## CCCCCC[C@@H]([C@@H](C)O)n1cnc2c(N)ncnc21 (racemic) [EHNA]
[1]; cGMP hydrolysis, 0.25 μM 3H-cGMP substrate
  IC50: > 100 µM
[2]
  IC50: 3.7 µM

## CC1(C)C(=O)Nc2ccc(C3=NNC(=O)CC3)cc21 [Indolidan]
[1]; cGMP hydrolysis
  Ratio (IC50 PeakA/Peak B): <0.31
[2]
  Sensitivity of the new cGMP-PDE to inhibition (in words): relatively insensitive
  IC50: > 100 µM

## CCCc1nn(C)c2c(=O)[nH]c(-c3cc(S(=O)(=O)N4CCN(C)CC4)ccc3OCC)nc12 [Sildenafil]
Neoplastic cells
  Apoptosis induction in neoplastic cells (in words): none of the three; also recorded: do not have significant apoptosis-inducing or growth-inhibiting properties
  Growth inhibition of neoplastic cells (in words): none of the three; also recorded: do not have significant apoptosis-inducing or growth-inhibiting properties
[1]
  Inhibition of peak A activity (in words): inhibited activity of peak A
